Laboratory results: article PMC10980815, “Cell surface patching via CXCR4-targeted nanothreads for cancer metastasis inhibition” (Nature Communications, 2024)
Ends that are not written are not given here. HPMA copolymer = HPMA copolymer made by RAFT copolymerization of HPMA with N-(3-aminopropyl)methacrylamide (APMA), bearing maleimide groups for grafting

How the values were obtained:
4T1 cells [1] = test: Label-free proteomics analysis; assay type: cell-based, murine; conditions: Fig. 4f proteomics heatmap value
Experimental: For proteomics analysis, 4T1 cells (5 × 10^5 cells) were seeded in 12-well plates (NEST Biotechnology). […] Cell samples were submitted for label-free proteomics analysis (Shanghai Omics-space Biotech Co., Ltd., Shanghai, China). The analysis included protein extraction, protein digestion, LC − MS/MS detection (Thermo Scientific Orbitrap-Fusion Lumos), protein quantitation and identification (MaxQuant 1.5.5.1), and bioinformatics analysis.

[2] = tested on: pulmonary CD11b+Gr1+ BMDCs; test: Pulmonary BMDCs (CD11b+Gr1+) by flow cytometry; assay type: in vivo, female BALB/c mice
Experimental: (§1) 4T1 cells (1 × 10^6 cells) were injected into the third mammary fat pad of female BALB/c mice (6–8-week). […] On day 28, blood samples, lungs and tumors were harvested.
(§2) To explore the “seed-soil” crosstalk, the serum, intra-tumoral, and pulmonary concentration of LOX was determined using enzyme-linked immunosorbent assay kits (CSB-EL013041MO, CUSABIO, https://www.cusabio.com/) according to the manufacturer’s instructions. The serum, intra-tumoral, and pulmonary concentration of TGF-β was determined using mouse TGF-β ELISA Kit (Cat No.: HB1328-Mu). The formation of PMN was investigated through lung slices subjected to immunofluorescent staining of LOX, E-cadherin, and S100A8. For immunofluorescent staining of E-cadherin, Lung slices were stained with CoraLite® Plus 647 anti-mouse CD324 (E-cadherin, 1:300 dilution). For immunofluorescent staining of LOX and S100A8, Lung slices were separately stained with anti-LOX recombinant rabbit monoclonal antibody (1:500 dilution) or S100-A8 / MRP8 rabbit pAb (1:500 dilution), followed by staining with goat anti-rabbit IgG H&L Alexa Fluor® 647 (1:1000 dilution), respectively. Single-cell suspensions of lungs were analyzed using flow cytometry to assess BMDC (CD11b^+Gr1^+) with PE anti-mouse/human CD11b antibody (1:300 dilution) and FITC anti-mouse Ly-6G/Ly-6C (Gr-1) antibody (1:300 dilution). Chemokine concentrations in lungs were determined using a mouse CXCL12 ELISA kit.

4T1 cells [3] = test: Transwell invasion assay (matrigel); assay type: cell-based, murine
Experimental: Wound healing assay and transwell migration and invasion assay were conducted to investigate in vitro metastasis inhibition. For the wound healing assay, 4T1 cells (5 × 10^5 cells) were cultured in 12-well plates (NEST Biotechnology) as monolayer with more than 90% coverage. Sterile 200 μL pipette tips were used to scrape off the cells, generating a linear cell-free area in the middle of the well. Subsequently, cells were washed by PBS to remove debris. In the stimulated group, 4T1 cells were stimulated with CXCL12 (100 ng/mL) for 1 h. […] In the P-BS-CM1 → P-CM2 group, 4T1 cells underwent consecutive treatment with P-BS-CM1 for 1 h and P-CM2 for 1 h before CXCL12 stimulation (1 mg/mL BS equivalence, CM1:CM2, 1:1 mol%). Images of the wound were recorded by a microscope at 0 h and 24 h after CXCL12 stimulation, and the wound healing rate was calculated using Image J software. For the transwell migration and invasion assay, 4T1 cells (5 × 10^5 cells) were seeded in the non-coated upper chamber (Millipore, 8 μm) or GelNest™ matrigel (NEST Biotechnology) pre-coated upper chamber. The cells underwent the same treatment conditions as wound healing assay. After 24 h of treatment, migrated or invaded cells across the membrane were stained with 0.1% crystal violet, imaged by microscope, and quantified by absorbance at 570 nm after dissolution.

[4] = tested on: orthotopic 4T1 breast tumors; test: Spontaneous lung metastasis model: tumor volume and pulmonary metastatic nodules; assay type: in vivo, female BALB/c mice; conditions: for Number of metastatic nodules: Fig. 5e, pulmonary
Experimental: For the in vivo investigation of pulmonary metastasis, 4T1 cells (1 × 10^6 cells) were injected into the third mammary fat pad of female BALB/c mice (6–8 weeks). […] Tumor volumes were recorded every other day. On day 28, lungs were harvested and fixed with Bouin’s solutions. The pulmonary metastatic nodules were counted and analyzed by hematoxylin-eosin staining.

CXCL12 in lungs = test: Pulmonary CXCL12 ELISA; assay type: in vivo, female BALB/c mice
Experimental: as §1, §2

TGF-β = TGF-β ELISA (intra-tumoral, serum, pulmonary); assay type: in vivo, female BALB/c mice; design: Pulmonary TGF-β: unit not given beside the values; Intratumoral TGF-β / Systemic TGF-β: unit not given here; conditions: for Systemic TGF-β: serum
Experimental: as §1, §2

ζ-potential (Zetasizer) = assay type: physicochemical; conditions: Malvern Zetasizer Nano ZS90; mean ± SD
Experimental: The average molecular weight (Mw) and polydispersity (PDI) of the HPMA copolymer conjugates were determined by gel permeation chromatography (GPC) on an AKTA purifier equipment with a Superose 6 10/300 GL analytical column (GE Healthcare, USA) and a differential refraction detector (KNAUER, 2300, Germany). Hydrodynamic sizes and zeta potentials were determined using a Malvern Zetasizer Nano ZS90 equipment (Malvern Instruments Ltd, Malvern, UK). The contents of BS, CM1, and CM2 were determined using a bicinchoninic acid (BCA) protein assay. The PS concentration was determined by ultraviolet-visible (UV-Vis) spectroscopy at its characteristic absorbance peak (660 nm).

[5] = i.v. days 7, 14, 21 (5 mg/kg BS equivalence; P-CM2 24 h later), analysis day 28, mouse 1 of 5
[6] = ELISA, i.v. days 7, 14, 21, analysis day 28, mouse 1 of 5

## LGASWHRPDKCCLGYQKRPLPA [Free BS]
4T1 cells [1]; replicate 1
  PKA C-alpha: -0.6179
  VDAC3: 0.5272
4T1 cells [1]; replicate 2
  PKA C-alpha: 0.3837
  VDAC3: -0.8599
4T1 cells [1]; replicate 3
  PKA C-alpha: -0.4642
  VDAC3: 0.1524
[2]; [5]
  Pulmonary CD11b+Gr1+ BMDCs (%): 31.8%
[2]; same, mouse 2 of 5
  Pulmonary CD11b+Gr1+ BMDCs (%): 39.87%
[2]; same, mouse 3 of 5
  Pulmonary CD11b+Gr1+ BMDCs (%): 35.6%
[2]; same, mouse 4 of 5
  Pulmonary CD11b+Gr1+ BMDCs (%): 41%
[2]; same, mouse 5 of 5
  Pulmonary CD11b+Gr1+ BMDCs (%): 39.4%
4T1 cells [3]; replicate 1
  Invasion content (%): 100.41%
4T1 cells [3]; replicate 2
  Invasion content (%): 88.2%
4T1 cells [3]; replicate 3
  Invasion content (%): 97.02%
[4]; mouse 1
  Number of metastatic nodules: 31
[4]; mouse 2
  Number of metastatic nodules: 28
[4]; mouse 3
  Number of metastatic nodules: 25
[4]; mouse 4
  Number of metastatic nodules: 36
[4]; mouse 5
  Number of metastatic nodules: 27
[4]; three weekly i.v. cycles, day 28
  lung metastatic nodule burden at endpoint: high metastatic nodule burdens
CXCL12 in lungs; [6]
  pulmonary CXCL12 (Fig. 6g): 440
CXCL12 in lungs; same, mouse 2 of 5
  pulmonary CXCL12 (Fig. 6g): 579
CXCL12 in lungs; same, mouse 3 of 5
  pulmonary CXCL12 (Fig. 6g): 367
CXCL12 in lungs; same, mouse 4 of 5
  pulmonary CXCL12 (Fig. 6g): 552
CXCL12 in lungs; same, mouse 5 of 5
  pulmonary CXCL12 (Fig. 6g): 532
TGF-β; replicate 1
  Intratumoral TGF-β: 20.98
  Pulmonary TGF-β: 9.12
  Systemic TGF-β: 321.2
TGF-β; replicate 2
  Intratumoral TGF-β: 26.43
  Pulmonary TGF-β: 10.3
  Systemic TGF-β: 324.5
TGF-β; replicate 3
  Intratumoral TGF-β: 26.11
  Pulmonary TGF-β: 11.1
  Systemic TGF-β: 372.1
TGF-β; replicate 4
  Intratumoral TGF-β: 22.3
  Pulmonary TGF-β: 10.7
  Systemic TGF-β: 355.2
TGF-β; replicate 5
  Intratumoral TGF-β: 20.45
  Pulmonary TGF-β: 8.9
  Systemic TGF-β: 352

## P-BS: HPMA copolymer-BS conjugate, ~6 BS grafts per polymer (LGASWHRPDKCCLGYQKRPLPA; not fully specified (residues 11, 12); also: about 6 peptides grafted on HPMA copolymer via cysteine-maleimide thioether links)
4T1 cells [1]; replicate 1
  PKA C-alpha: -1.375
  VDAC3: -0.0121
4T1 cells [1]; replicate 2
  PKA C-alpha: 0.3768
  VDAC3: 1.023
4T1 cells [1]; replicate 3
  PKA C-alpha: 0.8503
  VDAC3: 1.779
[2]; [5]
  Pulmonary CD11b+Gr1+ BMDCs (%): 25.1%
[2]; same, mouse 2 of 5
  Pulmonary CD11b+Gr1+ BMDCs (%): 26.4%
[2]; same, mouse 3 of 5
  Pulmonary CD11b+Gr1+ BMDCs (%): 34.2%
[2]; same, mouse 4 of 5
  Pulmonary CD11b+Gr1+ BMDCs (%): 28.9%
[2]; same, mouse 5 of 5
  Pulmonary CD11b+Gr1+ BMDCs (%): 29.8%
ζ-potential (Zetasizer)
  ζ-potential: -15.53±1.45 mV
4T1 cells [3]; replicate 1
  Invasion content (%): 61.3%
4T1 cells [3]; replicate 2
  Invasion content (%): 50.16%
4T1 cells [3]; replicate 3
  Invasion content (%): 42.1%
[4]; mouse 1
  Number of metastatic nodules: 15
[4]; mouse 2
  Number of metastatic nodules: 17
[4]; mouse 3
  Number of metastatic nodules: 22
[4]; mouse 4
  Number of metastatic nodules: 19
[4]; mouse 5
  Number of metastatic nodules: 28
CXCL12 in lungs; [6]
  pulmonary CXCL12 (Fig. 6g): 258
CXCL12 in lungs; same, mouse 2 of 5
  pulmonary CXCL12 (Fig. 6g): 221
CXCL12 in lungs; same, mouse 3 of 5
  pulmonary CXCL12 (Fig. 6g): 368
CXCL12 in lungs; same, mouse 4 of 5
  pulmonary CXCL12 (Fig. 6g): 245
CXCL12 in lungs; same, mouse 5 of 5
  pulmonary CXCL12 (Fig. 6g): 267
TGF-β; replicate 1
  Intratumoral TGF-β: 15.43
  Pulmonary TGF-β: 5.4
  Systemic TGF-β: 276.4
TGF-β; replicate 2
  Intratumoral TGF-β: 15.3
  Pulmonary TGF-β: 5.1
  Systemic TGF-β: 245.1
TGF-β; replicate 3
  Intratumoral TGF-β: 19.3
  Pulmonary TGF-β: 7.1
  Systemic TGF-β: 225.1
TGF-β; replicate 4
  Intratumoral TGF-β: 17.3
  Pulmonary TGF-β: 6.3
  Systemic TGF-β: 267.3
TGF-β; replicate 5
  Intratumoral TGF-β: 15.33
  Pulmonary TGF-β: 4.2
  Systemic TGF-β: 241.2

## P-CM2-Cy3: Cy3-labeled P-CM2 (C(HPMA copolymer)YGGEVSALEKEVSALEKKNSALEKEVSALEKEVSALEK; also: Cy3 label on conjugate, position not given here)
ζ-potential (Zetasizer)
  ζ-potential: -9.21±0.67 mV
